A short description of this data set: gradient 5% acetonitrile 3 min, to 50% in 2 min, to 85% in 15 min, held 3 min, 100 µL/min. The settings on record: column: Zorbax Extend-C18 2.1 x 50 mm; eluents: water / acetonitrile, 0.1% formic acid. Summed up: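 A Zorbax Extend-C18 column (2.1 × 50 mm, 1.8 μm) run at 100 μL/min with water and acetonitrile, both containing 0.1% formic acid, separated mixtures of ~100 pure standards. The HPLC was coupled to a quadrupole time-of-flight mass spectrometer operated in positive and negative ionization mode, with dead and dwell volumes of 40 μL and 900 μL. Each retention time was taken from a computationally picked adduct peak that was then manually inspected.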
On to `Cc1cc(F)ccc1NC(=O)c1cc(C2CC2)on1`, for which the RP-LC retention time was 936 s. Under `Cc1cccc(-c2nc(C3CCN(S(=O)(=O)c4ccccc4)CC3)no2)c1` stands 1150 s; under `Cc1ccc(NC(=O)C2CC(=O)N(CCc3c[nH]c4ccc(C)cc34)C2)c(C)c1` (centres undefined), 842 s; under `COc1cccc(-c2noc(Cc3nnc(-c4ccc(C)c(C)c4)o3)n2)c1OC`, 1060 s. The result for `CCOc1ccccc1N1CCN(Cc2nc(-c3ccc(N4CCCC4)nc3)no2)CC1` reads 651 s; that for `Cc1cc2[nH]c(C(=O)NCc3ccc(F)cc3)c(CN3CCOCC3)c2s1`, 689 s.

Compound `COc1ccc(S(=O)(=O)NCc2cccnc2-c2ccc(F)cc2)cc1` came in with an RP-LC retention time of 714 s. The result for `Cc1ccc(NC(=O)NC2CCN(c3ccccc3)C2=O)c(C)c1` (centres undefined) reads 823 s; that for `O=C1C(Nc2ccccc2)=CC(=O)c2ncccc21`, 734 s. Regarding `Cc1nc(-c2csc(S(=O)(=O)N3CCC(C(=O)N(C)Cc4ccccc4)CC3)c2)no1`, the RP-LC retention time was 898 s. Compound `Cn1nc(-c2nc(C(C)(C)C)no2)ccc1=O` came in with an RP-LC retention time of 761 s. The result for `CCC(C)NS(=O)(=O)c1ccc(-c2n[nH]c(C)c2C)o1` (centres undefined) reads 772 s; that for `CCOC(=O)c1c(NC(=O)C2CCN(S(C)(=O)=O)CC2)sc2ccccc12`, 979 s; that for `CC(C)NC(=O)C1CN(S(=O)(=O)c2ccccc2)c2cc(C(C)(C)C)ccc2O1` (centres undefined), 780 s.

`COC(=O)c1c(C)[nH]c(C(=O)N2CCCC(C(=O)NCc3ccc(OC)cc3)C2)c1C` (centres undefined) had an RP-LC retention time of 735 s. The result for `O=C(Nc1ccc2nc3n(c(=O)c2c1)CCCC3)Nc1ccc(Br)cc1F` reads 782 s; that for `CC(C)C(NC(=O)c1ccco1)c1nc(-c2ccc3c(c2)ncn3C)no1` (centres undefined), 650 s. The result for `CCOC(=O)c1c(S(=O)(=O)N2CCC(C(=O)Nc3ccc(F)c(Cl)c3)CC2)c(C)n(C)c1C` reads 935 s.

Consider `Cc1ccc(CNC(=O)C2(C)CCN(S(=O)(=O)c3ccccc3Cl)CC2)cc1`, for which the RP-LC retention time amounted to 998 s. The result for `Cc1nnc2ccc(-c3noc(-c4ccc(Cl)cc4)n3)cn12` reads 959 s.

In the case of `Cc1scc2nc(C3CCC3)nc(N3CCC(C(=O)N4CCN(c5ccccn5)CC4)CC3)c12`, the RP-LC retention time was determined as 587 s. Under `O=C(NCCN1CCCc2ccccc21)C1CCCN(c2ncnc3c2nc2n3CCCCC2)C1` (centres undefined) stands 877 s; under `O=C(Cn1c(=O)c2nncn2c2ncccc21)N1CCN(c2cccc(Cl)c2)CC1`, 750 s. The result for `COc1ccc(NC(=O)C2CCCN(c3nc4ccccc4nc3OC)C2)cc1OC` (centres undefined) reads 982 s; that for `Cc1cc(-c2nnc(-c3ccc(F)cc3)o2)c(C)n1CC(=O)Nc1ccc(F)cc1`, 964 s; that for `COc1cccc(OC)c1CN1CCC2(CC1)CC(O)CCO2` (centres undefined), 597 s. Under `CCCn1c(-c2cccc(C(=O)NCc3cccc(Br)c3)c2)nc2cccnc21` stands 894 s. `COc1ccc(OC)c(NC(=O)c2sc(-c3cn(C(C)C)c4ncccc34)nc2C)c1` returned an RP-LC retention time of 1030 s. Under `CN(C)C(=O)C1CCc2sc(C(=O)N3CCOCC3)cc2C1` (centres undefined) stands 614 s; under `Cc1ccc(CNC(=O)C2(C)CN(S(C)(=O)=O)CC(=O)N2Cc2ccc(N(C)C)cc2)cc1` (centres undefined), 668 s; under `CCc1ccccc1NC(=O)NCC(c1cccnc1)c1cn(C)c2ccccc12` (centres undefined), 711 s.

The compound `CS(=O)(=O)c1ccc(Cc2nnc(NC(=O)C3CCCC3)o2)cc1` returned an RP-LC retention time of 632 s. With `O=C(NCCn1nc(-c2ccc(Cl)cc2)ccc1=O)c1csc(-c2ccccc2)n1`, the RP-LC retention time was 854 s. Under `COCCCNC(=O)C1CCCN(c2nc3ccc(Cl)cc3[nH]2)C1` (centres undefined) stands 610 s; under `Cc1cc(C(=O)N2CCCCC2)c2c(=O)n(CC(=O)NCCC(C)C)c(=O)n(C)c2n1`, 790 s; under `Cc1ccc(NC(=O)Nc2ccc3c(c2)CCN3S(=O)(=O)c2ccccc2)cc1`, 995 s. The result for `COC1C(=O)N(c2cccc(F)c2)C12CCN(C(=O)Nc1ccccc1F)CC2` (centres undefined) reads 890 s; that for `COc1ccc(CNC(=O)C2(C)CCCN(S(=O)(=O)c3ccc(Br)cc3)C2)cc1` (centres undefined), 1020 s; that for `COc1ccc(OC)c(NC(=O)N2CCC(c3cnn(-c4ccccc4)c3)CC2)c1`, 956 s.

Turning to `CNCc1ccc(-c2[nH]c3cc(F)cc4c3c2CCNC4=O)cc1`, the RP-LC retention time was 642 s. The result for `CCc1nn2c(CNS(=O)(=O)c3ccc(F)cc3)c(-c3ccccc3)nc2s1` reads 932 s. Consider `CCN1C(=O)c2ccccc2Oc2ccc(C(=O)NCCC3=CCCCC3)cc21`, for which the RP-LC retention time came to 639 s. Under `CCN1CCN(C(=O)c2cc(-c3ccc(C)cc3)cn2CC)CC1` stands 678 s; under `COc1ccc(Nc2c(-c3ccc(C(=O)O)cc3)nc3cnccn23)cc1OC`, 663 s. Under `COc1ccc2[nH]cc(CCN3CC(C(=O)Nc4ccc(Cl)cc4)CC3=O)c2c1` (centres undefined) stands 829 s. The result for `Cc1nc(C2CC23CCN(S(=O)(=O)c2cccnc2)CC3)no1` (centres undefined) reads 726 s.

Take `COC(=O)c1ccc(CSc2nnc(C(C)C)c3cnn(-c4ccc(F)cc4)c23)o1`: the RP-LC retention time turned out to be 840 s. The result for `Cc1cccc(-c2nnc(CC(=O)NCC(C)C)o2)c1` reads 790 s; that for `O=C(Cn1nc2c3sc(N4CCCCC4)nc3ncn2c1=O)Nc1ccc(Cl)cc1`, 832 s. The result for `Cn1c(=O)n(C)c2cc(N3CCOCC3)c(NC(=O)COc3ccc(Cl)cc3)cc21` reads 899 s; that for `c1cc(-c2noc(C3CC3)n2)ccc1OC1CNC1`, 616 s; that for `O=C(Nc1cccc2c1CCCC2)C1CCN(S(=O)(=O)c2ccc3[nH]c(=O)ccc3c2)CC1`, 808 s.

`Cc1cc2nc(C)c(=O)n(CC(=O)NCCCN(C)C3CCCCC3)c2cc1C`: the RP-LC retention time was found to be 624 s.

In turn, `CC(C)(C)c1ccc(-c2nc(N3CCCC3)c3ccccc3n2)cc1` registered an RP-LC retention time of 906 s.

The compound `CCN(CC)CCOc1ccc(/C(=C(\Cl)c2ccccc2)c2ccccc2)cc1` yielded an RP-LC retention time of 996 s. Take `CC(C)c1csc(-c2csc(S(=O)(=O)NCc3ccc4c(c3)OCO4)c2)n1`: the RP-LC retention time stood at 1050 s. Under `O=C(NCc1cccc(Cl)c1)C1CCN(c2cnc3nccnc3c2)CC1` stands 697 s; under `CCNc1nc(N(CC)CC)nc(-n2cnc(SC)n2)n1`, 964 s. Under `CCOc1ccc(-c2nc3ncccn3c2NCc2ccccc2)cc1` stands 758 s.

These data come from the METLIN SMRT retention time set (Domingo-Almenara et al. 2019).
